Here are results for 37 molecules from US11261186B2, “Biaryl derivative as GPR120 agonist” (LG CHEM, LTD., priority 2014, dated 2022).

pEC50: −log10 of the molar value.

For the experiment, the target named is T1, hGPR120 (Homo sapiens, UniProt Q5NUL3).
T1 construct: expressed in transfected cells; host or cells: CHO-K1
T1 sequence (Q5NUL3 1-361): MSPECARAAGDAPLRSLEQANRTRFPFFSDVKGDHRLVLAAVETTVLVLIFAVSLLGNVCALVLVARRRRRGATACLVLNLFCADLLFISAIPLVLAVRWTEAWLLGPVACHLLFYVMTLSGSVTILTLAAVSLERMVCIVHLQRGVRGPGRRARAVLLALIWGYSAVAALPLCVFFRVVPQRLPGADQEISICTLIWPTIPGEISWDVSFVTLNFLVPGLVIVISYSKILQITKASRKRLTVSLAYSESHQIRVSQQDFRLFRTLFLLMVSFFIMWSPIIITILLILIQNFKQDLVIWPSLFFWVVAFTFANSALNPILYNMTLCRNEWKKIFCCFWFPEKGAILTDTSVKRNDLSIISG
Kind of experiment: Measurement of Activity of GPR120 Agonist (Cell-Based Assay), Calcium 5 dye fluorescence. To be noted: CHO-K1 cells expressing Ga16 and hGPR120. The method, boiled down: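 After an 18 h incubation at 37 °C, the transfected CHO-K1 cells (Gα16, hGPR120) received Calcium 5 dye for 1 h; compound dilutions in 0.5% DMSO were then injected and emission at 525 nm recorded, with values given as % of the vehicle response.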
Regarding `CC(C)(CCCC(=O)O)c1c(F)cc(-c2cccnc2OC2CCCC2)cc1F` [Example 162, 5-[4-(2-cyclopentyloxy-pyridin-3-yl)-2,6-difluoro-phenyl]-5-methyl-hexanoic acid], the pEC50 is 5.70 to 6.70. With `CC(C)(CCCC(=O)O)c1ccc(-c2cccnc2SC2CCCC2)cc1` [Example 163, 5-[4-(2-cyclopentylsulfanyl-pyridin-3-yl)-phenyl]-5-methyl-hexanoic acid], the pEC50 was 5.70 to 6.70. Regarding `CC(C)(CCCC(=O)O)c1c(F)cc(-c2cccnc2SC2CCC2)cc1F` [Example 164, 5-[4-(2-cyclobutylsulfanyl-pyridin-3-yl)-2,6-difluoro-phenyl]-5-methyl-hexanoic acid], the pEC50 is 5.70 to 6.70.

As for `CC(C)(CCCC(=O)O)c1ccc(-c2cccnc2SC2CCC2)cc1` [Example 165, 5-[4-(2-cyclobutylsulfanyl-pyridin-3-yl)-phenyl]-5-methyl-hexanoic acid], the pEC50 was over 6.70. The value for `O=C(O)CCCC1(c2c(F)cc(-c3cccnc3OC3CCCC3)cc2F)CC1` [Example 166, 4-{1-[4-(2-cyclopentyloxy-pyridin-3-yl)-2,6-difluoro-phenyl]-cyclopropyl}-butyric acid] was over 6.70. In the case of `O=C(O)CCCC1(c2c(F)cc(-c3cccnc3SC3CCC3)cc2F)CC1` [Example 167, 4-{1-[4-(2-cyclobutylsulfanyl-pyridin-3-yl)-2,6-difluoro-phenyl]-cyclopropyl}-butyric acid], the pEC50 is 5.70 to 6.70.

Take `O=C(O)CCCC1(c2c(F)cc(-c3cccc(OC4CCC4)n3)cc2F)CC1` [Example 168, 4-{1-[4-(6-cyclobutoxy-pyridin-2-yl)-2,6-difluoro-phenyl]-cyclopropyl}-butyric acid]: the pEC50 was over 6.70. As for `O=C(O)CCCC1(c2c(F)cc(-c3cccnc3OCC3CCC3)cc2F)CC1` [Example 169, 4-{1-[4-(2-cyclobutylmethoxy-pyridin-3-yl)-2,6-difluoro-phenyl]-cyclopropyl}-butyric acid], the pEC50 is 5.70 to 6.70. In the case of `O=C(O)CCCC1(c2c(F)cc(-c3cccc(OCC4CC4)n3)cc2F)CC1` [Example 170, 4-{1-[4-(6-cyclopropylmethoxy-pyridin-2-yl)-2,6-difluoro-phenyl]-cyclopropyl}-butyric acid], the pEC50 is over 6.70. The value for `CC(CCCC(=O)O)c1c(F)cc(-c2cccc3c2OC(F)(F)O3)cc1F` (stereo not shown) [Example 171, 5-[4-(2,2-difluoro-benzo[1,3]dioxol-4-yl)-2,6-difluoro-phenyl]-hexanoic acid] was over 6.70; that for `O=C(O)COCC(F)(F)c1ccc(-c2cccnc2OC2CCCC2)cc1` [Example 172, {2-[4-(2-cyclopentyloxy-pyridin-3-yl)-phenyl]-2,2-difluoro-ethoxy}-acetic acid] was 4.70 to 5.70; that for `O=C(O)COCC(F)(F)c1ccc(-c2cccnc2SC2CCC2)cc1` [Example 173, {2-[4-(2-cyclobutylsulfanyl-pyridin-3-yl)-phenyl]-2,2-difluoro-ethoxy}-acetic acid] was 4.70 to 5.70.

Consider `O=C(O)COCC(F)(F)c1ccc(-c2cccc(OC3CCC3)n2)cc1` [Example 174, {2-[4-(6-cyclobutoxy-pyridin-2-yl)-phenyl]-2,2-difluoro-ethoxy}-acetic acid], for which the pEC50 is 5.70 to 6.70. The value for `O=C(O)CCC1CC1c1c(F)cc(-c2cccnc2OC2CCCC2)cc1F` (stereo not shown) [Example 175, 3-{2-[4-(2-cyclopentyloxy-pyridin-3-yl)-2,6-difluoro-phenyl]-cyclopropyl}-propanoic acid] was over 6.70; that for `O=C(O)CCC1CC1c1c(F)cc(-c2cccnc2SC2CCC2)cc1F` (stereo not shown) [Example 176, 3-{2-[4-(2-cyclobutylsulfanyl-pyridin-3-yl)-2,6-difluoro-phenyl]-cyclopropyl}-propanoic acid] was over 6.70; that for `O=C(O)CCCC(F)(F)c1ccc(-c2cccnc2OC2CCCC2)cc1` [Example 177, 5-[4-(2-cyclopentyloxy-pyridin-3-yl)-phenyl]-5,5-difluoro-pentanoic acid] was over 6.70. Consider `O=C(O)CCCC(F)(F)c1ccc(-c2cccnc2SC2CCC2)cc1` [Example 178, 5-[4-(2-cyclobutylsulfanyl-pyridin-3-yl)-phenyl]-5,5-difluoro-pentanoic acid], for which the pEC50 is over 6.70.

Take `CCCSc1ncccc1-c1cc(F)c(C2CC2CCC(=O)O)c(F)c1` (stereo not shown) [Example 179, 3-{2-[2,6-difluoro-4-(2-propylsulfanyl-pyridin-3-yl)-phenyl]-cyclopropyl}-propanoic acid]: the pEC50 was over 6.70. Then `O=C(O)CCC1CC1c1c(F)cc(-c2cccc(OC3CCC3)n2)cc1F` (stereo not shown) [Example 180, 3-{2-[4-(6-cyclobutoxy-pyridin-2-yl)-2,6-difluoro-phenyl]-cyclopropyl}-propanoic acid], with over 6.70; and `O=C(O)CCCC(F)(F)c1ccc(-c2cccnc2OCC2CC2)cc1` [Example 181, 5-[4-(2-cyclopropylmethoxy-pyridin-3-yl)-phenyl]-5,5-difluoro-pentanoic acid], with over 6.70. For the molecule `O=C(O)CCC1CC1c1c(F)cc(-c2cccnc2SC2CCCC2)cc1F` (stereo not shown) [Example 182, 3-{2-[4-(2-cyclopentylsulfanyl-pyridin-3-yl)-2,6-difluoro-phenyl]-cyclopropyl}-propanoic acid], the pEC50 was over 6.70. Consider `O=C(O)CCC1CC1c1c(F)cc(-c2cccnc2NC2CCCC2)cc1F` (stereo not shown) [Example 183, 3-{2-[4-(2-cyclopentylamino-pyridin-3-yl)-2,6-difluoro-phenyl]-cyclopropyl}-propanoic acid], for which the pEC50 is over 6.70. For `O=C(O)CCCC(F)(F)c1ccc(-c2cccnc2SC2CCCC2)cc1` [Example 184, 5-[4-(2-cyclopentylsulfanyl-pyridin-3-yl)-phenyl]-5,5-difluoro-pentanoic acid], the pEC50 is over 6.70. On to `O=C(O)CCCC(F)(F)c1ccc(-c2cccnc2OC2CCC2)cc1` [Example 185, 5-[4-(2-cyclobutoxy-pyridin-3-yl)-phenyl]-5,5-difluoro-pentanoic acid], for which the pEC50 is over 6.70.

In the case of `O=C(O)CCCC(F)(F)c1ccc(-c2cccc(OC3CCC3)n2)cc1` [Example 186, 5-[4-(6-cyclobutoxy-pyridin-2-yl)-phenyl]-5,5-difluoro-pentanoic acid], the pEC50 is over 6.70. For `O=C(O)CC1CCC(c2ccc(-c3cccnc3OC3CCCC3)cc2F)CC1` (stereo not shown) [Example 187, {4-[4-(2-cyclopentyloxy-pyridin-3-yl)-2-fluoro-phenyl]-cyclohexyl}-acetic acid], the pEC50 was 5.70 to 6.70. For the molecule `O=C(O)CCC1CC1c1c(F)cc(-c2cccnc2OC2CCC2)cc1F` (stereo not shown) [Example 188, 3-{2-[4-(2-cyclobutoxy-pyridin-3-yl)-2,6-difluoro-phenyl]-cyclopropyl}-propanoic acid], the pEC50 was over 6.70. `O=C(O)CCC1CC1c1c(F)cc(-c2cccnc2OCC2CCC2)cc1F` (stereo not shown) [Example 189, 3-{2-[4-(2-cyclobutylmethoxy-pyridin-3-yl)-2,6-difluoro-phenyl]-cyclopropyl}-propanoic acid]: the pEC50 is over 6.70.

Take `O=C(O)CCC1CC1c1c(F)cc(-c2cccnc2OC2CCOCC2)cc1F` (stereo not shown) [Example 190, 3-(2-{2,6-difluoro-4-[2-(tetrahydro-pyran-4-yloxy)-pyridin-3-yl]-phenyl}-cyclopropyl)-propanoic acid]: the pEC50 is 5.70 to 6.70. The value for `O=C(O)CCC1CC1c1c(F)cc(-c2cccc(OCC3CC3)n2)cc1F` (stereo not shown) [Example 191, 3-{2-[4-(6-cyclopropylmethoxy-pyridin-2-yl)-2,6-difluoro-phenyl]-cyclopropyl}-propanoic acid] was over 6.70; that for `CC(C)Sc1cccc(-c2ccc(C(F)(F)CCCC(=O)O)cc2)n1` [Example 192, 5,5-difluoro-5-[4-(6-isopropylsulfanyl-pyridin-2-yl)-phenyl]-pentanoic acid] was over 6.70; that for `CC1(C)Cc2c(cccc2-c2ccc(OCCCC(=O)O)cc2)O1` [Example 193, 4-[4-(2,2-dimethyl-2,3-dihydro-benzofuran-4-yl)-phenoxy]-butyric acid] was over 6.70. The value for `CC1(C)Cc2c(cccc2-c2ccc(OCCCC(=O)O)c(F)c2)O1` [Example 194, 4-[4-(2,2-dimethyl-2,3-dihydro-benzofuran-4-yl)-2-fluoro-phenoxy]-butyric acid] was over 6.70; that for `CN(CCCC(=O)O)c1c(F)cc(-c2cccnc2SC2CCC2)cc1F` [Example 195, 4-{[4-(2-cyclobutylsulfanyl-pyridin-3-yl)-2,6-difluoro-phenyl]-methyl-amino}-butyric acid] was over 6.70.

On to `CN(CCCC(=O)O)c1c(F)cc(-c2cccnc2OC2CCCC2)cc1F` [Example 196, 4-{[4-(2-cyclopentyloxy-pyridin-3-yl)-2,6-difluoro-phenyl]-methyl-amino}-butyric acid], for which the pEC50 is over 6.70. `CN(CCCC(=O)O)c1c(F)cc(-c2cccnc2SC2CCCC2)cc1F` [Example 197, 4-{[4-(2-cyclopentylsulfanyl-pyridin-3-yl)-2,6-difluoro-phenyl]-methyl-amino}-butyric acid]: the pEC50 was over 6.70.

On to `CN(CCCC(=O)O)c1c(F)cc(-c2cccc(OC3CCC3)c2)cc1F` [Example 199, 4-[(3′-cyclobutoxy-3,5-difluoro-biphenyl-4-yl)-methyl-amino]-butyric acid], for which the pEC50 was over 6.70.
